Holding throughout (type): functional, cell-based
For one experiment, the system named is HepG2. Description: Cytotoxicity against human HepG2 cells after 6 days by MTT method. To be noted: HepG2, 144 h. For orientation: Tetrazolium assays rely on reduction of a dye to a coloured formazan, in cell work by metabolically active cells.
In another experiment the test system is MDA-MB-231. Kind of experiment: Cytotoxicity against human MDA-MB-231cells after 6 days by MTT method. Conditions: MDA-MB-231, 144 h.
The next experiment has as its system A549. Description: Cytotoxicity against human A549 cells after 6 days by MTT method. To be noted: A549, 144 h.

For `CC(C)=CCC/C(=C/CC/C(C)=C/CC/C(C)=C/CC1=CC(=O)C(C)=CC1=O)CO` [CHABROLOBENZOQUINONE E], the half-maximal inhibitory concentration (IC50) in the experiment with HepG2, in the experiment with MDA-MB-231 and with A549 was > 48.8 µM throughout.

As to `CC(=O)OC/C(=C\CC/C(C)=C/CC/C(C)=C/CC1=CC(=O)C(C)=CC1=O)CCC=C(C)C` [CHABROLOBENZOQUINONE F], the IC50 turned out to be 38.1 µM with HepG2, 33.2 µM in the experiment on MDA-MB-231 and 38.1 µM in the experiment on A549.

Regarding `CC(=O)O[C@H](CC/C(C)=C/CC/C(C)=C/CC1=CC(=O)C(C)=CC1=O)[C@@](C)(O)CCC=C(C)C` [CHABROLOBENZOQUINONE H], the values for the IC50 in the experiment on HepG2, in the experiment with MDA-MB-231 and in the experiment with A549 were > 42.5 µM, 31.4 µM and 38 µM, respectively.

On to `CC(C)=CCC/C(C)=C/CC/C(C)=C/CC[C@](C)(O)/C=C\c1cc(O)c(C)cc1O` [CHABROLOHYDROXYBENZOQUINONE E], for which the IC50 with HepG2, in the experiment on MDA-MB-231 and in the experiment on A549 was > 48.5 µM in each case.

As to `CC(C)=CCC/C(C)=C/[C@@H](O)C/C(C)=C/CC[C@](C)(O)/C=C\c1cc(O)c(C)cc1O` [CHABROLOHYDROXYBENZOQUINONE F], the IC50 was 44.4 µM with HepG2, > 46.7 µM in the experiment with MDA-MB-231 and 42.3 µM in the experiment on A549.

For `CC(=O)O[C@H](CC/C(C)=C/CC[C@](C)(O)/C=C\c1cc(O)c(C)cc1O)[C@@](C)(O)CCC=C(C)C` [CHABROLOHYDROXYBENZOQUINONE G], the IC50 in the experiment with HepG2 came out at 18.4 µM; in the experiment with MDA-MB-231, 18 µM; with A549, 26.8 µM.

Consider `CC(=O)O[C@H](CC/C(C)=C/CCc1ccc2c(c1)C(=O)C(C)=CC2=O)[C@@](C)(O)CCC=C(C)C` [CHABROLONAPHTHOQUINONE B], for which the IC50 worked out at 12.4 µM with HepG2, 4.7 µM in the experiment with MDA-MB-231 and 33.9 µM in the experiment with A549.

On to `COc1cccc2c1C(=O)c1c(O)c3c(c(O)c1C2=O)C[C@@](O)(C(=O)CO)C[C@@H]3O[C@H]1C[C@H](N)[C@H](O)[C@H](C)O1` [DOXORUBICIN], for which the IC50 in the experiment on HepG2 was 0.17 µM; in the experiment with MDA-MB-231 it was 0.07 µM; with A549, 0.17 µM.

In general, IC50 refers to the concentration that inhibits the measured activity by half. A high value points to weaker potency in that assay.

(Values after ChEMBL document CHEMBL1158831, “Meroditerpenoids from a Formosan soft coral Nephthea chabrolii” (J Nat Prod, 2005).)
